Where a SMILES comes first, the peptide text is derived from it. Bridges are numbered along the chain shown (N, C = ends). [ ]: non-standard residue; d: D form. NMeY = CN[C@@H](Cc1ccc(O)cc1)C(=O)O; Nle = CCCC[C@H](N)C(=O)O

In experiment [1] the test system is urethane-anesthetized male rats. Put plainly: in vivo GH secretion after intravenous injection, blood GH by radioimmunoassay. More on the design: species or system rat. The following applies: compared with 25 μg hGRF(1-40)--OH. Here is the method: In addition to the in vitro tests for secretion of growth hormone, in vivo experiments inject the synthetic peptides intravenously into urethane-anesthetized male rats and determine that they trigger GH secretion. Blood samples are taken immediately prior to, and 10, 45 and 90 minutes after injections, and GH levels in blood are measured by radioimmunoassay. […] Dosages between about 400 nanograms and about 50 micrograms of these cyclic peptides per Kg. of body weight are considered to be effective in causing GH secretion.

Experiment [2] concerns cells of rat pituitary glands. Put plainly: in vitro GH release from cultured rat pituitary cells, side-by-side with standard hGRF(1-40)--OH. The class given is cell-based. The settings on record: equimolar concentrations, incubation 3 to 4 hours, ir GH in culture medium by radioimmunoassay. Here is the method: All of these synthetic peptides are considered to be biologically active and potentially useful for stimulating the release of GH by the pituitary.
To determine the relative effectiveness of certain representative synthetic peptides to promote the release of growth hormone, in vitro assays are carried out using synthetic hGRF(1-40)--OH as a standard in side-by-side comparison with equimolar concentrations of the representative analogs which have been synthesized. Cultures are used which include cells of rat pituitary glands removed some three to five days previously. Such cultures are considered optimal for the secretion of growth hormone and are used for the comparative testing, in the general manner described in Vale et al. Endocrinology, 91, 562-572 (1972) and as more particularly described in Vale et al. Endocrinology, 112, 553-1555 (1983). Incubation with the substance to be tested is carried out for 3 to 4 hours, and aliquots of the culture medium are removed and processed to measure their contents in immunoreactive GH(ir GH) by a well-characterized radioimmunoassay.

In the case of `CCCC[C@@H]1NC(=O)[C@H]([C@@H](C)CC)NC(=O)[C@H](NC(=O)[C@H](Cc2c[nH]cn2)NC(=O)[C@H](CC(C)C)NC(=O)[C@H](CC(C)C)NC(=O)[C@H](CCCCN)NC(=O)[C@H](CCCNC(=N)N)NC(=O)[C@H](C)NC(=O)[C@H](Cc2ccc(O)cc2)NC(=O)[C@H](CC(C)C)NC(=O)[C@H](CCC(N)=O)NC(=O)[C@H](C)NC(=O)[C@H](CC(C)C)NC(=O)[C@@H](NC(=O)[C@H](CCCNC(=N)N)NC(=O)[C@H](CCCNC(=N)N)NC(=O)[C@H](Cc2ccc(O)cc2)NC(=O)[C@H](CO)NC(=O)[C@H](CO)NC(=O)[C@@H](NC(=O)[C@H](Cc2ccccc2)NC(=O)[C@@H](NC(=O)[C@H](C)NC(=O)[C@H](CC(=O)O)NC(=O)[C@H](C)NC(=O)[C@H](Cc2ccc(O)cc2)NC)[C@@H](C)CC)[C@@H](C)O)[C@@H](C)CC)CSSC[C@@H](C(N)=O)NC(=O)[C@H](CC(N)=O)NC1=O` [Example I, [N^a MeTyr^1, Ala^15, D-Cys^25, Nle^27,Cys^29]-rGRF(1-29)-NH2] (H-[NMeY]ADAIFTSSYRRILAQLYARKLLH[dC]I[Nle]NC-NH2; disulfide 25-29), the “in vivo response (blood GH) at 10 minutes” value in experiment [1] (dosage of 1 μg) was “greater than a 25 μg dose of hGRF(1-40)--OH”.

As for `CCCC[C@@H]1NC(=O)[C@H]([C@@H](C)CC)NC(=O)[C@@H](NC(=O)[C@H](Cc2c[nH]cn2)NC(=O)[C@H](CC(C)C)NC(=O)[C@H](CC(C)C)NC(=O)[C@H](CCCCN)NC(=O)[C@H](CCCNC(=N)N)NC(=O)[C@H](C)NC(=O)[C@H](Cc2ccc(O)cc2)NC(=O)[C@H](CC(C)C)NC(=O)[C@H](CCC(N)=O)NC(=O)[C@H](C)NC(=O)[C@H](CC(C)C)NC(=O)[C@@H](NC(=O)[C@H](CCCNC(=N)N)NC(=O)[C@H](CCCNC(=N)N)NC(=O)[C@H](Cc2ccc(O)cc2)NC(=O)[C@H](CO)NC(=O)[C@H](CO)NC(=O)[C@@H](NC(=O)[C@H](Cc2ccccc2)NC(=O)[C@@H](NC(=O)[C@H](C)NC(=O)[C@H](CC(=O)O)NC(=O)[C@H](C)NC(=O)[C@H](Cc2ccc(O)cc2)NC)[C@@H](C)CC)[C@@H](C)O)[C@@H](C)CC)CSSC[C@H](C(N)=O)NC(=O)[C@H](CC(N)=O)NC1=O` [Example IA, [N^a MeTyr^1,Ala^15,Cys^25,Nle^27,D-Cys^29]-rGRF(1-29)-NH2] (H-[NMeY]ADAIFTSSYRRILAQLYARKLLHCI[Nle]N[dC]-NH2; disulfide 25-29), the “biological potency for the secretion of GH relative to hGRF(1-40)--OH” value in experiment [2] is given as “about twice”. Moreover, the “in vivo response (blood GH) at 10 minutes” value in experiment [1] (dosage of 5 μg) is recorded as “greater than a 25 μg dose of hGRF(1-40)--OH”.
